Source: publication PMC5865651, “Novel inhibitor candidates of TRPV2 prevent damage of dystrophic myocytes and ameliorate against dilated cardiomyopathy in a hamster model” (Oncotarget, 2018)

Legend:
human TRPV2 (hTRPV2) [1] = target: T1, human TRPV2 (hTRPV2) (Homo sapiens, UniProt Q9Y5S1); settings: cited from earlier work
T1 sequence (Q9Y5S1 1-764): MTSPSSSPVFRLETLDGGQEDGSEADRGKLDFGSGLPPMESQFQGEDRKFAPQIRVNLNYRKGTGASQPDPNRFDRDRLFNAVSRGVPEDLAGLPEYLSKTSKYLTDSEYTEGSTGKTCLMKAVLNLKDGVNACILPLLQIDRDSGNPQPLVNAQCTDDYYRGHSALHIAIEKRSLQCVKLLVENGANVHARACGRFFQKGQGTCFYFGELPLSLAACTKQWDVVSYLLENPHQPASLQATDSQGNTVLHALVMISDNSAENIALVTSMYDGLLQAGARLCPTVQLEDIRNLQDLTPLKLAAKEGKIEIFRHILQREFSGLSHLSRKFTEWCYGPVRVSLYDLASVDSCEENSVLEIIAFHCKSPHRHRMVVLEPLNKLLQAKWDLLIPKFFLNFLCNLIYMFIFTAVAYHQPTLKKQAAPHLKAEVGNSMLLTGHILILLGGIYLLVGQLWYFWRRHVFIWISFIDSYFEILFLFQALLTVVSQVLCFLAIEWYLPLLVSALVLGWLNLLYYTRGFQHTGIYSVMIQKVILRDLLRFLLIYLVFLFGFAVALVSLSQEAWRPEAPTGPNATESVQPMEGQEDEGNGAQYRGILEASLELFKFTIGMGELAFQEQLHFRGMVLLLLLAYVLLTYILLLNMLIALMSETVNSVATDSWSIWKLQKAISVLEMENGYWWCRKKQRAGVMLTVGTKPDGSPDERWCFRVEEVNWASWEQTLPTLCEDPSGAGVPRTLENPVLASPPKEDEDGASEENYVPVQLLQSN

human TRPV2 (hTRPV2) [2] = target: T1, human TRPV2 (hTRPV2); assay: CaCl2 (5 mM)-induced increase in [Ca2+]i in CHO cells expressing hTRPV2; type: cell-based; set-up: expressed in transfected cells; host or cells: CHO cells; settings: compound 15 μM
Method: Figure 4 Effects of inhibitor compounds on the Ca^2+ response of cells expressing hTRPV1, hTRPV2, or hTRPC1 (A) Effect of compounds on CaCl2 (5 mM)-induced peak fluorescence ratio in non-transfected (nt) or hTRPV2-transfected CHO cells. The extracellular Ca^2+-dependent increase in the ratio of fura-2 fluorescence intensity at 340/380 nm (ΔR, 2 min after addition of chemicals) was plotted as ΔR/R0 after normalising to the initial fluorescence ratio (R0). […] Solid bar, no inhibitor. (B) Effect of compounds on 2-APB (1 mM)/high extracellular CaCl2-induced peak fluorescence ratio in nt or hTRPV1-transfected HEK293 cells. […] (C) Effect of compounds on store-operated Ca^2+ entry in nt or hTRPC1-transfected HEK293 cells. Cells were treated with the endoplasmic reticulum Ca^2+ pump inhibitor thapsigargin and exposed to CaCl2 and the indicated compounds. ΔR was measured 2 min after the addition of CaCl2. […]
[Ca^2+]i was measured by a ratiometric fluorescence method as previously described. […] Fura-2-AM fluorescence was measured using an Aquacosmos fluorescence image processor (Hamamatsu Photonics, Hamamatsu, Japan). The time-course data are presented as the ratio of fluorescence at an excitation wavelength of 340 nm to that at 380 nm. The increase in the fluorescence ratio induced by the TRPV2 agonist 2-APB or high extracellular Ca^2+ (ΔR) was normalized to the initial ratio (R0) before stimulation. […]

[3] = test system: dystrophic myocytes from J2N-k hamsters; assay: Ca2+ response in cultured myocytes from dystrophic J2N-k hamsters; type: cell-based, hamster; settings: compound 15 μM
[4] = target: T2, human Cav1.2/β2/α2δ1 L-type calcium channel (Homo sapiens, UniProt Q13936); assay: L-type Ca2+ current in human Cav1.2/β2/α2δ1 expressing CHO cells (patch clamp); type: cell-based; settings: CHO cells expressing human Cav1.2/β2/α2δ1 calcium channel, pH 7.4, 15 μM lumin, n = 3, read-out: L-type current, % of control
T2 construct: host or cells: CHO cells (purchased recombinant cell line)
T2 sequence (Q13936 whole entry): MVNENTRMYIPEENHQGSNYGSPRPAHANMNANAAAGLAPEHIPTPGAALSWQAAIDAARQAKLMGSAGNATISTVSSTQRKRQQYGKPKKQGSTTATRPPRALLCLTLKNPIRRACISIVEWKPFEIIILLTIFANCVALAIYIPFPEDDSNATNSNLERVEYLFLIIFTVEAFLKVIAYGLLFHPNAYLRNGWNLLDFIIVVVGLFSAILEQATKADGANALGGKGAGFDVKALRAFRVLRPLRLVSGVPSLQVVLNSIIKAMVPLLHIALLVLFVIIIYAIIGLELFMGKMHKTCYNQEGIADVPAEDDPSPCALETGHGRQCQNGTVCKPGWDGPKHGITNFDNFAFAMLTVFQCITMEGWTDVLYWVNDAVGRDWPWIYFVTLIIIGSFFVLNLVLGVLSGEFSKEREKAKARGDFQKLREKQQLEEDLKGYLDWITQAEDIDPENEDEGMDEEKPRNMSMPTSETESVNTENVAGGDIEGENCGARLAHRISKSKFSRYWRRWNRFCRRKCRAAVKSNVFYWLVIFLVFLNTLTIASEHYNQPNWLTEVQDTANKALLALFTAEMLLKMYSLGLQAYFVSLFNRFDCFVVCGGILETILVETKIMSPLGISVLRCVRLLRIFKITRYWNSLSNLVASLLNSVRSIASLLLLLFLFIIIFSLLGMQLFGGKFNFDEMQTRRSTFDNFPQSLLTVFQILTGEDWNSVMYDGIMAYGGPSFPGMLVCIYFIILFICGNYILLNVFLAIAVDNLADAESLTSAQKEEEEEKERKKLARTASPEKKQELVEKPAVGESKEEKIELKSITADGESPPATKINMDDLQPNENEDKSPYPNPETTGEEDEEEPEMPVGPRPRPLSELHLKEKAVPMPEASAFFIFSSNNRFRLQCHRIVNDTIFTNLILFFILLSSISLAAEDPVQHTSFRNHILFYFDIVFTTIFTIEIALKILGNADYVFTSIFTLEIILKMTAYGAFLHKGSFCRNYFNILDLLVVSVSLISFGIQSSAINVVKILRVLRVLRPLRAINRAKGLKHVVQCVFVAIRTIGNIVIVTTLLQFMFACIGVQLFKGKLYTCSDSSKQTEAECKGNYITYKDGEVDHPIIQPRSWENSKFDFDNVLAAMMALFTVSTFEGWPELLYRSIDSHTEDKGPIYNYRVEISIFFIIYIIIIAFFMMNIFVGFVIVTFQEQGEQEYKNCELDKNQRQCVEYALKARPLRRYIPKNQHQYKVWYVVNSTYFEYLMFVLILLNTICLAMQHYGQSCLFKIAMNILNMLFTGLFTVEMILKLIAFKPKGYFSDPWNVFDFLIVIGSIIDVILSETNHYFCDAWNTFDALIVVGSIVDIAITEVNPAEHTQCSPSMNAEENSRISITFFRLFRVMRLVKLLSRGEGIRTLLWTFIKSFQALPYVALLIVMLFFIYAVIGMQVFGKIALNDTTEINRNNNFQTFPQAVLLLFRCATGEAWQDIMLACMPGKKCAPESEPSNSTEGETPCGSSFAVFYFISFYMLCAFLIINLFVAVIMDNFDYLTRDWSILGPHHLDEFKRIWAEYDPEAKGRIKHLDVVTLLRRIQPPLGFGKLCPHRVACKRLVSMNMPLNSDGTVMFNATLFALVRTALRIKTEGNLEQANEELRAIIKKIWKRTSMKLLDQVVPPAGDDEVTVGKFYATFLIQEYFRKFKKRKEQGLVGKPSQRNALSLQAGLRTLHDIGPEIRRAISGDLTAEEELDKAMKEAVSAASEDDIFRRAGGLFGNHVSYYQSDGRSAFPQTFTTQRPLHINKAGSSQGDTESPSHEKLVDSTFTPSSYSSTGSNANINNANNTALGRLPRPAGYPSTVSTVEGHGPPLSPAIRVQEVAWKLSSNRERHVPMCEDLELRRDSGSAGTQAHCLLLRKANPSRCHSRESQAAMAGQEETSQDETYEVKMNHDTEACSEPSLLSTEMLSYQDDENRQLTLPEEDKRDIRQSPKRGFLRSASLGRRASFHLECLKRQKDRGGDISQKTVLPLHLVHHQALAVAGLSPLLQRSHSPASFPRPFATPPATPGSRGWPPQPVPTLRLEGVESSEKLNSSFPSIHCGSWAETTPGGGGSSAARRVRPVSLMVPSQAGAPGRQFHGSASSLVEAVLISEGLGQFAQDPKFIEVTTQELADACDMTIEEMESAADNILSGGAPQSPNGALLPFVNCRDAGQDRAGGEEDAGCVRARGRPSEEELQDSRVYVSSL
T2 sequence (Q08289 whole entry partner): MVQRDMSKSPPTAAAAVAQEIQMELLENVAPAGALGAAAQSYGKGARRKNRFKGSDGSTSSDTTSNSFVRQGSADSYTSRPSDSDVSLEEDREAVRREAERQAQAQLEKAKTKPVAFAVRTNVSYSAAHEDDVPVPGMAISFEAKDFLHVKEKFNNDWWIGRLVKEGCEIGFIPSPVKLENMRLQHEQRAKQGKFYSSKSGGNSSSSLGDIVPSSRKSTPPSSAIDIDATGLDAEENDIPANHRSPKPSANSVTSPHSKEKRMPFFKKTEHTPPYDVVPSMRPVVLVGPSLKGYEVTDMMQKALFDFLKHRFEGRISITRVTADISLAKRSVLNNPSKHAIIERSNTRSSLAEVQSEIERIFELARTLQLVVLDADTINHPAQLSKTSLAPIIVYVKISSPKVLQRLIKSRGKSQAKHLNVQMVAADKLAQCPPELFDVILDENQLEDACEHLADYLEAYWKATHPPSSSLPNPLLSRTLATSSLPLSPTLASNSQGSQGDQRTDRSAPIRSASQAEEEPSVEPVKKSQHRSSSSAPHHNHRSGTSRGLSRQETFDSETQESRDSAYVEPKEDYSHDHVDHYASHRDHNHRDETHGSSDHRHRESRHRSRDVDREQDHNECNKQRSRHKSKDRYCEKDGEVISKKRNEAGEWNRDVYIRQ
T2 sequence (P54289 25-956 partner limits assumed): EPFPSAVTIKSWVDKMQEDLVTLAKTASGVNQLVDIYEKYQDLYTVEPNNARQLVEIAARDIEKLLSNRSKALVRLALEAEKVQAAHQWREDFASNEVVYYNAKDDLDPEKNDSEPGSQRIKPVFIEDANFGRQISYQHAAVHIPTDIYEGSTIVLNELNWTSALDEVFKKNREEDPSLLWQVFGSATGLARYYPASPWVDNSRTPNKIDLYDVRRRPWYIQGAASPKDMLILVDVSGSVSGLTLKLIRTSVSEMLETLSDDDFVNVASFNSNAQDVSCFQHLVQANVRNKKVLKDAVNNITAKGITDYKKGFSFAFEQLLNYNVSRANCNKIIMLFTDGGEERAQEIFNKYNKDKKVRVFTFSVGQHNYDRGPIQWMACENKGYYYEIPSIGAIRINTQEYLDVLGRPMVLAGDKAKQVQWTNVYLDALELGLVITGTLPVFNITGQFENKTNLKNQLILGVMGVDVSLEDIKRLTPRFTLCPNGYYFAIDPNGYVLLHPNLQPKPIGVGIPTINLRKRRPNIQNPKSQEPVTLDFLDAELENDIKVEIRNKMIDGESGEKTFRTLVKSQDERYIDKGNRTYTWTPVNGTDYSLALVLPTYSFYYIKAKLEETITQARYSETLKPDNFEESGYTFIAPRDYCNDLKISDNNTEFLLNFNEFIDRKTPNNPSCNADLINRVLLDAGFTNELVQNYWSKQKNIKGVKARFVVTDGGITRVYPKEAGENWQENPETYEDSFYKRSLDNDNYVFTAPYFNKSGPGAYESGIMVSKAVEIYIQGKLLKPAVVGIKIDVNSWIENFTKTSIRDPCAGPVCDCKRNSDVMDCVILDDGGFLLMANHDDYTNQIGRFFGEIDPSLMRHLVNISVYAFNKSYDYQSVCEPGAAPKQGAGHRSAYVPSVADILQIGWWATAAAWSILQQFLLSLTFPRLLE
T2 sequence (P54289 957-1103 partner limits assumed): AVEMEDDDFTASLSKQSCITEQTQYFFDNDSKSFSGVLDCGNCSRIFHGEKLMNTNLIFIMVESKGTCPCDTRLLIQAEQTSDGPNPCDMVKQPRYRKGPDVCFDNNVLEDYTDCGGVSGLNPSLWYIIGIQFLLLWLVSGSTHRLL
Method: Figure 8 Effect of lumin on the Ca^2+ response and channel activity in HEK293 cells expressing mTRPV2 (A) Inhibition of the 2-APB-induced increase in [Ca^2+]i in HEK293 cells expressing mTRPV2 by lumin. Cells were loaded with fura-2-AM and stimulated with 2-APB (0.3 mM) in the absence or presence of the indicated concentrations of lumin. The fluorescence ratio was measured by a microplate reader and normalized by the maximal value. Data are shown as mean ± SD (n = 5). (B) Lumin blocked the mTRPV2 channel. The current values at −100 mV measured by an every-2-second ramp protocol were plotted. After the current activated by 200 μM 2-APB at pH 6.5 became stable, a mixture of 15 μM lumin and 2-APB was applied to the cells. (C) Effect of lumin on the current-voltage relationship of 2-APB-evoked current. (D) Concentration-dependence of lumin for the inhibition of mTRPV2 current. Data are shown as mean ± SD (n = 3–5) (E) Effect of lumin (15 μM) on L-type Ca^2+ channel activity. The current waveforms of the control cells and the cells 11 minutes after application of 15 μM lumin were superimposed. […]
For the measurement of L-type Ca^2+ currents, human Cav1.2/β2/α2δ1 calcium channel expressing CHO cells were purchased from ChanTest (Cleveland, OH, USA). […] The data were analysed and plotted with Clampfit 9 (Molecular Devices, LLC, Sunnyvale, CA, USA). […]

In the case of `NCCOB(c1ccccc1)c1ccccc1` [2-APB, 2-aminoethoxydiphenylborate], the “response of hTRPV2 to 2-APB” value (human TRPV2 (hTRPV2) [1]) is given as “unresponsive”.

With `COc1cc(/C=C(\C#N)C(=O)Nc2ccccc2C(=O)O)cc(Cl)c1OC` [A3, 2-[(2E)-3-(3-Chloro-4,5-dimethoxyphenyl)-2-cyanoprop-2-enoylamino]benzoic acid] the “effect on Ca2+ influx in response to CaCl2 exposure” value (human TRPV2 (hTRPV2) [2]) was “markedly inhibited”.

With `CCN1C=CC(=CC=C(C=Cc2cc[n+](CC)c3ccccc23)c2cc[n+](CC)c3ccccc23)c2ccccc21.[I-].[I-]` [lumin, 4,4′-[3-[2-[1-ethyl-4(1H)-quinolinylidene]ethylidene]-1-propene-1,3-diyl]bis(1-ethylquinolinium) diiodide] the “effect on high extracellular Ca2+ (5 mM)-induced increase in [Ca2+]i” value [3] was “inhibited”, the “effect on 2-APB-induced increase in [Ca2+]i” value ([3]; 2-APB 0.5 mM, CaCl2 5 mM, pH 6.5) was “inhibited” and the activity at 11 min, 15 μM [4] was 96.6 ± 8.7%.

For `COc1cccc(OCCn2cc(/C=N/n3cnnc3)c3ccccc32)c1` [B6, 1-{2-[3-((1E)-2-(1,2,4-triazol-4-yl)-2-azavinyl)indolyl]ethoxy}-3-methoxybenzene], the “effect on Ca2+ influx in response to CaCl2 exposure” value (human TRPV2 (hTRPV2) [2]) was “not”.
